Source: patent publication US20080214621A1, “Cycloalkyl Lactam Derivatives As Inhibitors Of 11-Beta-Hydroxysteroid Dehydrogenase 1” (priority 2004, published 2008)

Biological target: Human 11β-HSD type 1 (Homo sapiens, UniProt P28845)
Experiment: 11β-HSD type 1 enzyme assay (NADPH production by fluorescence)
Type: biochemical
Conditions: recombinant human 11β-HSD type 1 enzyme, cortisol/NADP substrate, three hour incubation at room temperature
Procedure: Human 11β-HSD type 1 activity is measured by assaying NADPH production by fluorescence assay. Solid compounds are dissolved in DMSO to a concentration of 10 mM. Twenty microliters of each are then transferred to a column of a 96-well polypropylene Nunc plate where they are further diluted 50-fold followed by subsequent two-fold titration, ten times across the plate with additional DMSO using a Tecan Genesis 200 automated system. Plates are then transferred to a Tecan Freedom 200 system with an attached Tecan Temo 96-well head and an Ultra 384 plate reader. Reagents are supplied in 96-well polypropylene Nunc plates and are dispensed individually into black 96-well Molecular Devices High Efficiency assay plates (40 μL/well capacity) in the following fashion: 9 μL/well of substrate (2.22 mM NADP, 55.5 μM Cortisol, 10 mM Tris, 0.25% Prionex, 0.1% Triton X100), 3 μL/well of water to compound wells or 3 μL to control and standard wells, 6 μL/well recombinant human 11β-HSD type 1 enzyme, 2 μL/well of compound dilutions. […] Final DMSO concentration is 0.5% for all compounds, controls and standards. Plates are then placed on a shaker by the robotic arm of the Tecan for 15 seconds before being covered and stacked for a three hour incubation period at room temperature. Upon completion of this incubation, the Tecan robotic arm removes each plate individually from the stacker and places them in position for addition of 5 μL/well of a 250 μM carbenoxolone solution to stop the enzymatic reaction. Plates are then shaken once more for 15 seconds then placed into an Ultra 384 microplate reader (355EX/460EM) for detection of NADPH fluorescence.

Sequence of Human 11β-HSD type 1 (P28845 whole entry): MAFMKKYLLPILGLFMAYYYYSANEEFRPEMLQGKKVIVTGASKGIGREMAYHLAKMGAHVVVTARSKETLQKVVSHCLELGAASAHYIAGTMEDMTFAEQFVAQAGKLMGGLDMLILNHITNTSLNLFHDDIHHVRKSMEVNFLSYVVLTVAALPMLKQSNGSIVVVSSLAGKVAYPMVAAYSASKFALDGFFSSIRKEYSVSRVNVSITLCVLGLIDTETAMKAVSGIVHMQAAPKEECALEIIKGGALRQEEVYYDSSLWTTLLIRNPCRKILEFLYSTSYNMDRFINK

IC50 [nM] | Compound
353 | COc1ccc2cc(CC3CCCN([C@H]4CC[C@H](O)CC4)C3=O)ccc2c1 (stereo partly shown) [Example 34]
344 | O=C1C(Cc2ccc3cc(-c4c(Cl)cccc4Cl)ccc3c2)CCN1C1CCCCC1 (stereo not shown) [Example 44]
423 | COc1ccc2ccccc2c1CC1CCCN(C2CCCCC2)C1=O (stereo not shown) [Example 40, 1-Cyclohexyl-3-(2-methoxy-naphthalene-1-ylmethyl)-piperidin-2-one]
213 | COc1ccc2c(Cl)c(CC3CCN(C4CCCCC4)C3=O)ccc2c1 (stereo not shown) [Example 24, 3-((1-chloro-6-methoxynaphthalen-2-yl)methyl)-1-cyclohexylpyrrolidin-2-one]

Further lines, the molecule ahead of its results:

Compound | IC50 [nM]
O=C1C(Cc2ccc3ccccc3c2Br)CCN1C1CCCCC1 (stereo not shown) [Example 2, 3-(1-Bromo-naphthalen-2-ylmethyl)-1-cyclohexyl-pyrrolidin-2-one] | 354
COc1ccc2cc(CC3CCN([C@H]4CC[C@@H](O)CC4)C3=O)ccc2c1 (relative stereo) [Example 8, 1-(cis-4-Hydroxy-cyclohexyl)-3-(6-methoxy-naphthalen-2-ylmethyl)-pyrrolidin-2-one] | 247
COc1ccc2cc(CC3CCN(C4CCCCC4)C3=O)ccc2c1 (stereo not shown) [Example 4, 1-Cyclohexyl-3-(6-methoxy-naphthalen-2-ylmethyl)-pyrrolidin-2-one] | 134
